Four compounds from article PMC3378573, “TRPA1 Is a Polyunsaturated Fatty Acid Sensor in Mammals” (PLoS ONE, 2012) can be followed below.

Type in all cases: cell-based
Assay [1] concerns the target T1, TRPA1 (Rattus norvegicus, UniProt Q6RI86). Nature of the assay: whole-cell patch clamp in transfected HEK293 cells, […] fatty acid. On the technique in general: Patch clamp records ionic current or voltage across a cell membrane.
For assay [2], the target named is TRPA1 (Mus musculus, UniProt Q8BLA8). Nature of the assay: whole-cell patch clamp of native TRPA1 in STC-1 cells (-60 mV). The source says:
whole-cell patch clamp of native TRPA1 in STC-1 cells (-60 mV) on TRPA1 | Concentration-response curve for AITC evoked currents in STC-1 cells

Assay [3] addresses T1, TRPA1. Nature of the assay: whole-cell patch clamp in transfected HEK293 cells (-60 mV), with NAC.
Assay [4] concerns the target T1, TRPA1. Put plainly: patch clamp of native TRPA1 in RIN14B cells, block of DHA current at […].

T1 sequence (Q6RI86 whole entry): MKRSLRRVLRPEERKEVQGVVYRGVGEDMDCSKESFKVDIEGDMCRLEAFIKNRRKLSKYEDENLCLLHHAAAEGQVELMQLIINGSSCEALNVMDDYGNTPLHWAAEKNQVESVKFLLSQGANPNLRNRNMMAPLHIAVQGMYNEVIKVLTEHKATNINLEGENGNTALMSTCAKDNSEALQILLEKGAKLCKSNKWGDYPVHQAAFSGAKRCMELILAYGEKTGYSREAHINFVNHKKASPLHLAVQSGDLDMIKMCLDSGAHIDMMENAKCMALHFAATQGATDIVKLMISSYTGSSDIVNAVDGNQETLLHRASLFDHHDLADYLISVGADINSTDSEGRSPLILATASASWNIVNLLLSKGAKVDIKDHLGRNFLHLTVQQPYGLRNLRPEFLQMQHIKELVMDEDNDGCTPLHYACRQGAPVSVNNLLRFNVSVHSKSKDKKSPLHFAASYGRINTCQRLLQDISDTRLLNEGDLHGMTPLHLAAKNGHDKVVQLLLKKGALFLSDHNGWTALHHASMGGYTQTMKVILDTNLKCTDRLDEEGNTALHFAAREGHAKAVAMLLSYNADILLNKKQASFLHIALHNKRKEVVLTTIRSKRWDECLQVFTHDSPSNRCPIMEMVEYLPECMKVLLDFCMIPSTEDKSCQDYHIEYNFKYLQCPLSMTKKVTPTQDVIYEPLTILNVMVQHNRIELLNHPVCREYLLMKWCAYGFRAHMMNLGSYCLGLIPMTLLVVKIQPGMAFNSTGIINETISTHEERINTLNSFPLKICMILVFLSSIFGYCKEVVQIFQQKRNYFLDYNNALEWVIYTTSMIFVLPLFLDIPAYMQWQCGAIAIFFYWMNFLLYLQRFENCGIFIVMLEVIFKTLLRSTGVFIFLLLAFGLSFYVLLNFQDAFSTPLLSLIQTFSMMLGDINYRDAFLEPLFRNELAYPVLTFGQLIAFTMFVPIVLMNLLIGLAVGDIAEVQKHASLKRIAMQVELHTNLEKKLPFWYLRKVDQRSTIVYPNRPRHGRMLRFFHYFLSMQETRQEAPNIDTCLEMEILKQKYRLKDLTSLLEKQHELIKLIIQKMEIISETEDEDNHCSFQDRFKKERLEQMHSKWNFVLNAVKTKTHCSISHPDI
TRPA1 (Mus musculus, UniProt Q8BLA8), sequence (Q8BLA8 whole entry): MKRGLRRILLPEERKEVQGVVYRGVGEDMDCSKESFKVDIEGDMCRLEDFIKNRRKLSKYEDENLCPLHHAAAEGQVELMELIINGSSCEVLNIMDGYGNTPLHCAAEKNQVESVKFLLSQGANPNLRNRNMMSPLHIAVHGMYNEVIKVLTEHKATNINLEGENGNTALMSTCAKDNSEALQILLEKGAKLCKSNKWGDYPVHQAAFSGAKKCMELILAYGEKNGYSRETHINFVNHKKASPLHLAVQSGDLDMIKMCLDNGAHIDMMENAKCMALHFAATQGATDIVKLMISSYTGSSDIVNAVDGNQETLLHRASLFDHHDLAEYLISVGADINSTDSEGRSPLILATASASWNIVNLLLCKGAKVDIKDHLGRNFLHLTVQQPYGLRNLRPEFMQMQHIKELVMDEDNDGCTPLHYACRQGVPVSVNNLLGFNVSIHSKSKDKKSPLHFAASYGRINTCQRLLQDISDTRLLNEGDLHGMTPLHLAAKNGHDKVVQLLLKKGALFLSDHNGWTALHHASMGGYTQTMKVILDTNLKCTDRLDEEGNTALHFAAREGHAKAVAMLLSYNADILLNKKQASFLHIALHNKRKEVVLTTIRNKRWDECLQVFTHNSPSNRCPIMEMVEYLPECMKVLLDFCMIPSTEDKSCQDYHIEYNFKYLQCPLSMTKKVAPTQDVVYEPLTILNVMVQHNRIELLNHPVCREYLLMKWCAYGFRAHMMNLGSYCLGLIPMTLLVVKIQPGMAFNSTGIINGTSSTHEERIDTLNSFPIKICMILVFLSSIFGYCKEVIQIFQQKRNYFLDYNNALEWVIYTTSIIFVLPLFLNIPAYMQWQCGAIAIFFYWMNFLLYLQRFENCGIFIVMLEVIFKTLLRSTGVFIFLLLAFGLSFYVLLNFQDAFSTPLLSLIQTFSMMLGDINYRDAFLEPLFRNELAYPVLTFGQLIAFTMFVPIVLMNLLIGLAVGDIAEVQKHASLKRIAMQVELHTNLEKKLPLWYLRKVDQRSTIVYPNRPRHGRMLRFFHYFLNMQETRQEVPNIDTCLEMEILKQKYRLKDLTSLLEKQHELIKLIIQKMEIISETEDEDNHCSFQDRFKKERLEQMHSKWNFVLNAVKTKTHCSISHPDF

On to `CCCCC/C=C\C/C=C\C/C=C\C/C=C\CCCC(=O)O` [AA, arachidonic acid], for which, on TRPA1 [1], the “whole-cell patch clamp in transfected HEK293 cells, 100 μM fatty acid” value is “Thus, AA, EPA and DHA possess approximate equivalent efficacy”. On to `C=CCN=C=S` [AITC, allyl isothiocyanate], for which a half-maximal response at TRPA1 [2] (EC50) required 29 µM.

Regarding `CC/C=C\C/C=C\C/C=C\C/C=C\C/C=C\C/C=C\CCC(=O)O` [DHA, docosahexaenoic acid], the response on TRPA1 [3] was half-maximal at 41 µM (EC50). With `CC(C)c1ccc(NC(=O)Cn2cnc3c2c(=O)n(C)c(=O)n3C)cc1` [HC030031], on TRPA1 [4], the “patch clamp of native TRPA1 in RIN14B cells, block of DHA current at 50 μM” value is “outwardly-rectified conductance in voltage-clamped STC-1 and RIN14B cells, that is inhibited by the TRPA1 antagonist, HC030031”.

What is called EC50 is the concentration that produces a half-maximal response. Read a high EC50 as lower potency in that assay.
